In test [1] the test system is Central artery of a rabbit's ear. The experiment in a line: In vitro antispastic action, adrenalin-induced spasm of the perfused isolated artery. Particulars: spasm induced by Adrenalin, n=4. As for the experimental part:
An "in vitro" method has been used, according to which the withdrawal of the central artery of a rabbit's ear with the relevant nervous connections and the equipment of an appropriate seat for secluded organs was designed (Fleckenstein A., British Journal of Pharmacology 7, 533, 1952).
On the artery they did install a three-ways tube, connected with a peristaltic pump and with a mercury manometer to record the perfusion pressure. The artery was perfused with a rebs liquid at the speed of 2,5 ml/minute. The contractions were induced by injecting into the vessel 0,1 ml adrenalin at the concentration of 1 mcg/ml. The compound according to the example 1 has been added to the bath at concentrations of 0,5 - 1 - 2 uM, five minutes before the adrenalin (four preparations per concentration). As comparison drugs, chlorhydra ted Buflomedil and Papaverin have been used. The activity of the material under investigation has been appreciated in terms of percentages referring to the concentration induced by the Adrenalin (and expressed with DE₅₀) and the relevant forbidding.

In test [2] the test system is skin temperature of the mouse's paw. The experiment in a line: Peripheral vessel-dilating activity in the mouse (skin temperature of hind paws). It counts as in vivo. Particulars: listed as buflomedil HCl; for Temperature (°C) of the hind paws (n=10): intravenous, dose 0,030 mM/kg/iv; for Temperature (°C) of the hind paws: oral, dose 0,500 mM/kg/os. The protocol:
The method of Richter W. (Acta Pharm. Toxicol. 21, 91; 1974) was used; it consists in determining, at fixed time intervals after the treatment, the skin temperature of the mouse's paw, by keeping the animals in rooms at a constant temperature of 21°C.
Some groups of ten male mouses each have been used; the weight of each animal was 30 g approximately.
The compound according to the Example 1 has been tested "per os" at three basic levels of the doses (0,125 - 0,25 - 0,5 mM/kg) and by intravenous injection at two dose levels (0,015 and 0,03 mM/kg), in comparison with one sole dose of Papaverin and chlorhydrated Buflomedil (0,5 mM/kg "per os" and 0,03m M/kg intravenous). The observation of the skin temperature at the mouse's paw was made before the treatment, 30, 60 and 120 minutes after the "per os" treatment, […] (A-Hl Ellab) connected with an Ellab electric recorder. Of each animal the temperature of both hind paws has been measured, and the values obtained have been averaged .

Test [3] relates to aggregation of the platelets caused by the collagene. The test can be described thus: Anti-aggregating ex vivo activity against collagen in the rat. The protocol:
Six groups of 15 male rats of 200 - 250 g have been used.
The blood taken from the three rats of each group has been mixed and centrifuged during 6 minutes at 1400 rpm, at room temperature. After having taken the plasma full of platelets (PRP) the thereunder floating material has been centrifuged again (4000 rpm during 10 minutes) in order to have the plasma with few platelets (PPP) separated from the balance. The PRP has been diluted with a part of PPP in order to bring the number of platelets to 350 ± 50 x 10³/mm³. The aggregation has been evaluated in accordance with the method of Minsker D.H. and coll. (J. Pharmacol.Exp.Ther. 210 37 1979) by using an ELVI 840 two-channels aggregometer and an Omniscribe recorder B.500. A quantity of 0,25 ml PRP has been used, transferred into the aggregometer for two minutes at 37°C and stirred at 1000 rpm. The light intensity was arranged in such a way, to obtain 0% transmittance with the PRP and 100% with the PPP. After 2′ incubation, by means of microsyringe the collagene was added to the PRP in a volume quantity of 5 mcl with the final concentration of 4 mcg/ml.
From the aggregation trace of the recorder the following data have been evaluated: • a) latent time of the aggregation (seconds between the introductions of collagene and the starting of the aggregation) • b) transmittance increase percentage (maximum aggregation). The same proceeding was repeated for all animals, always by mixing the blood of three rats belonging to the same group and by obtaining in this manner five aggregation curves per group.

The subject of test [4] is red cells in the rat. The test can be described thus: Red cell adhesivity / filtration, Teitel method. It counts as in vivo. Particulars: for Teitel method Δ % vs contr.: dose 3 x 0,5 mM/kg/os; for Teitel method T1/2 min. M ± E.S.: dose 3 x 0,5 mM/kg/os (three consecutive days). The text has this:
(§1) steresis (Teiltel P.: Nouv. Rev. Franç. Hématol. 7, 195, 1967). Any alteration, almost undoubtely at the level of the red cell's membrane, cause some damaging variations of the red cell's elasticity thus making more difficult the passing through the capillary vessels having more reduced diameter, and therefore increasing the flow resistance in the peripheral vessels systems. In order to determine the effect caused by the compound according to the Example 1, on these features of the red cell, the method described by Schmidt, Schonbein and colleagues (Blut 26, 369, 1973) has been used.
(§2) In the circulatory flow, the above mentioned capillary vessels being excluded, the blood cells do normally circulate being attached between each other because of their adhesiveness. In order to study this adhesion force, the above mentioned Teitel method has been used. Male rats of 150 g body weight approximately have been employed, and they have been treated for three consecutive days with 0,5 mM/kg/os of the compound according to the Example 1, or otherwise Buflomedil, or even Pentosiphillin used as comparison substance. After the last treatment the animals, without eating from 18 hours, have been killed in a light ethereal anaesthesy and the blood was collected over an 0,2 molar EDTA (9 and 1 volumes respectively). The red cells filtering possibility, measured with the Teitel method, wherein the quantity of red cells passing, in high haematocritical conditions, through a paper filter with holes of 20-40 µm in a previously determined time, has been ascertained as follows: the blood was centrifuged for ten minutes at 2000 rpm in order to obtain the massing of the red cells, two ml of the blood collected as above were put into an upside down turned cone made with filtering paper, being previously wetted with a physiological solution. The volume passing through the filter in 2 - 4 - 8 and 16 minutes is then measured. The average filtration time T 1/2 is reckoned on semi-logarithmic paper by putting on the abscissae the logarithm of the time, and on the ordinates the percentage of blood filtered. In order to follow the Schmidt Schönbein method, the here after described proceeding has been performed: 0,2 ml of a suspension of red cells at 2% obtained by diluting the blood with the autological plasma, then it was placed into an appropriate device permitting to filter this blood through a filter (millipores) of 5 µm mashes at a filtration pressure of 50 mm water. With a chronometer one determines the time required for the passage of the whole sample through the filter.
At time same time, one measures, in the same conditions, the same parameter for a plasma sample. One calculates then the relative filtration time by dividing the time required to filter the diluted blood sample by the time being necessary to filter the plasma sample. For each group the average and the standard error of the individual data obtained was reckoned. The statistical evaluation was obtained by means of the Dunnett test.

The subject of test [5] is red cells in the rat. The test can be described thus: Red cell deformability / filtration, Schmidt-Schönbein method. It counts as in vivo. The note with it: dose 3 x 0,5 mM/kg/os.
Source text: as §1
as §2, with “The average filtration time T 1/2 is reckoned on semi-logarithmic paper by putting on the abscissae the logarithm of the time, and on the ordinates the percentage of blood filtered. In order to follow the Schmidt Schönbein method, the here after described proceeding has been performed: 0,2 ml of a suspension of red cells at 2% obtained by diluting the blood with the autological plasma, then it was placed into an appropriate device permitting to filter this blood through a filter (millipores) of 5 µm mashes at a filtration pressure of 50 mm water. With a chronometer one determines the time required for the passage of the whole sample through the filter.” left out

[6] abbreviates: 0 minutes (before the treatment).
Where [7] appears, read: rat, 1,00 mM/kg os for 4 days, PRP 2 hours after last treatment, collagene 4 mcg/ml, listed as Chlorhydrated Buflo-medil.
[8] abbreviates: rat, 1,00 mM/kg os for 4 days, listed as Chlorhydrated Buflo-medil.

This is an account of results in EP0470323A2, “New salts of the nicotinic acid with aminobenzylic compounds and their pharmaceutical use” (BROMLEY LIMITED, priority 1990, dated 1992).

For `COc1cc(OC)c(C(=O)CCCN2CCCC2)c(OC)c1` [Buflomedil, reference compound], in test [1] (Oryctolagus cuniculus, read-out: DE50 (the source's name)), the EC50 was determined as 0.67 µM. Also, the “% inhibi-tions of the con-tractions” value in test [1] (concentration 0,5 μ M) worked out at 41%; in test [1] (concentration 1,0 μ M), 60%; in test [1] (concentration 2,0 μ M) it was 87%. In addition, the “Temperature (°C) of the hind paws (n=10)” value in test [2] (setting [6]) is 24,3 ± 0,32 °C; in test [2] (30 minutes from the treatment), 26,6 ± 0,20 °C; in test [2] (60 minutes from the treatment), 26,3 ± 0,24 °C; in test [2] (120 minutes from the treatment), 26,0 ± 0,18 °C. Besides, the “Temperature (°C) of the hind paws” value in test [2] (setting [6]) is 24,2 ± 0,30 °C; in test [2] (30 minutes from the treatment), 25,8 ± 0,25 °C; in test [2] (60 minutes from the treatment), 26,5 ± 0,50 °C; in test [2] (120 minutes from the treatment), 26,1 ± 0,42 °C. In addition, in test [3] (rat, 1 mM/kg os, platelet aggregation by collagene), the “effect relative to that caused by the same dose of the compound according to the example 1” value is recorded as “approximately 50%”. Moreover, in test [3] (setting [7]), the “Latency time (sec.)” value was 51,9 ± 3,7 sec. Also, the “Transmittance percentage (maximum aggregation)” value in test [3] (setting [7]) is on record as 54,2 ± 4,5%. Moreover, the “Latency time, % variation vs controls” value in test [3] (setting [8]) was “+38,4%”. In addition, the “Transmittance percentage, % variation vs controls” value in test [3] (setting [8]) is -31%. Moreover, the “Teitel method Δ % vs contr.” value with red cells in the rat [4] is recorded as 20,3%. The “Teitel method T1/2 min. M ± E.S.” value with red cells in the rat [4] was 2,90 ± 0,28 min. Moreover, the “Schmidt-Schönbein method Δ % vs contr.” value in the test with red cells in the rat [5] is 24,2%.
As for `CC(=O)CCCCn1c(=O)c2c(ncn2C)n(C)c1=O` [pentossifillin], in the test with red cells in the rat [4], the “Teitel method Δ % vs contr.” value is 40,1% and the “Teitel method T1/2 min. M ± E.S.” value is 2,18 ± 0,19 min. In addition, the “Schmidt-Schönbein method Δ % vs contr.” value in the test on red cells in the rat [5] was 52,8%.
